Earlier results as cited in patent US11873290B2, “Pyridazinone compounds and uses thereof” (Edgewise Therapeutics, Inc., priority 2018, dated 2024).

Tested on: zebrafish model of DMD
Conditions: embryos from zebrafish model of DMD; cited from earlier work

Cc1ccc(S(=O)(=O)NCc2ccccc2)cc1 [BTS, N-benzyl-p-tolyl-sulfonamide]
Protection from pathological muscle derangement: protect muscles from pathological muscle derangement
